Results on one compound are retold here after US12691101B2, “Compound and method for preventing or treating of respiratory diseases comprising the same as an active ingredient” (YONSEI UNIVERSITY, UNIVERSITY - INDUSTRY FOUNDATION (UIF), priority 2019, dated 2026).

Structures are written as SMILES.

One data set in a line: Serum T3 and T4 in mice. Format: in vivo, mouse. As to conditions: 10 mg/kg/day for 1 week. The procedure:
The negative effect of F56 was examined by i.p administering of F56 10 mg/kg to female balb/c mice every 24 hours for 7 days. In 24 hours after the last administration, the hearing of mice was measured and serum was obtained. According to the manufacturer's protocol, the total serum level of triiodothyronine (T3) or thyroxine (T4) using a mouse ELISA kit (Calbiotech, T3043T-100 or T4044T-100).

Data set [1] relates to LPS-induced acute lung injury mice. The data set can be described thus: LPS-induced ALI in mouse model. Type of data set: in vivo. Here is the method:
Mice were slightly anesthetized by isoflurane inhalation (Abbott Laboratory), and were maintained in a supine position with the head raised. LPS (Escherichia coli, 0111: B4, Sigma) (10 mg/kg) in 50 μL PBS was administered by intranasal (i.n.) inhalation. As the control group, 50 μL sterile PBS was intranasally provided. With the aid of a microsyringe from Hamilton, the administration solution was gradually released into the nostrils. In case of the pretreatment model, F56 (10 mg/kg) in 50 μL DMSO was intraperitoneally (i.p) administered before 1 hour of LPS inhalation. In case of the post-treatment model, two doses of F56 were administered at 6 hours and 12 hours after LPS inhalation. The mice of the pretreatment group were euthanized and in 48 hours after LPS inhalation, the lung was harvested. In the post-treatment model, euthanasia and sample collection occurred 24 hours after LPS administration. For SCN^− experiment, after F56 treatment, […]
All mice were euthanized with fetal excessive amount of ketamine and xylazine. BALF was obtained by tracheal cannula using 1 mL sterile saline solution. BALF was centrifuged (4° C., 3000 rpm, 10 minutes) and the supernatant was stored at −80° C. for an additional analysis. The cell pellet was recomposed in 100 μL PBS, and used for the number of cells and cytospin sample. The total number of cells of each sample was determined using a hemocytometer (Marienfield), according to the manufacturer's protocol. Each sample in a 90 μL split amount was transferred to a slide chamber, and then the slide was inserted into the cytospin with outward facing. The slide was centrifuged at 800 rpm for 5 minutes, and then removed from the cell centrifuge, and dried before staining. The cytospin was prepared with a cell centrifuge (Shandon Cytospin 4 cytocentrifuge, Thermo Scientific, Waltham, MA, USA) and stained with Diff-Quik Stain Set (Dade Behring, Newark, DE, USA) to evaluate inflammation. The protein concentration of BAL supernatant was measured using BCA analysis (Thermo Fischer Scientific). 2 microliters of each sample and 198 μL of a working reagent were pipetted in a microplate well and completely mixed in a plate shaker for […]. After culturing at 37° C. for 30 minutes, the plate was cooled and the absorbance was read at 562 nm in a spectrophotometer.
The right lung was isolated and the pulmonary vasculature structure was flushed with saline solution under low pressure and stored at −80° C. before protein extraction. The left lung was inflated via tracheostomy with low-meting agarose (4%) in PBS at 25 cm H2O pressure until the pleural margin was sharpened. Then, the lung was excised and fixed overnight in 10% formaldehyde in PBS and embedded in paraffin for 5 μm sections. The left lung section was stained with H&E and subjectively evaluated with an optical microscope. Histopathology was reviewed in a blind method by two qualified researchers. Five easily identifiable pathological processes were scored using the weighted scale presented in the official ATS workshop report. Lung sections were processed using anti-rabbit SLC26A4 (ab98091, abcam) antibody for immunohistochemistry.
In the lung lysates, the level of macrophage inflammatory protein (MIP-2), interleukin-1β (IL-1β […] and tumor necrosis factor α (TNF-α) was measured using an ELISA kit (Millipore), according to the manufacturer's instructions.
The lung tissue was harvested and dissolved in a homogenization buffer (PRO-PREP™ extraction solution, iNtRON Biotechnology). The sample was centrifuged at 4° C. for 30 minutes at 13000 g. The supernatant protein concentration was determined by BCA analysis (Thermo Fisher Scientific). The same amount of protein was separated by SDS/PAGE and transferred to a nitrocellulose membrane. […]

Where [2] appears, read: post-treatment 10 mg/kg i.p. at 6 and 12 hours after LPS, 24 hours after LPS.
Setting [3] is: pretreatment 10 mg/kg i.p. 1 hour before LPS, 48 hours after LPS, versus vehicle.

For the compound `CC(C)(C)c1ccc(C2=NC(=Cc3cccs3)C(=O)O2)cc1` [F56, 2-(4-(tert-butyl)phenyl)-4-(thiophen-2-ylmethylene)oxazol-5(4H)-one], the “T3 and T4 plasma level” value in the data set “Serum T3 and T4 in mice” is reported as “not changed”. In addition, the “level of pro-inflammatory cytokine in lung lysates (IL-1β, MIP-2, IL-6, TNF-α)” value in data set [1] (F56 pretreated versus vehicle (DMSO) after LPS) was “reduced”. In addition, the “Phospho-Iκ expression in lung lysates” value in data set [1] (F56 treatment before LPS) is given as “significantly reduced”. In addition, in data set [1] (setting [2]), the BALF protein concentration entry was “considerably reduced”, the “BALF total cell number” value was “considerably reduced” and the lung injury score result is recorded as “considerably reduced”. Besides, in data set [1] (setting [3]), the “BAL protein concentration level” value was “reduced”, the “BAL total cell number” value is “reduced” and the lung injury score result is given as “significantly reduced”.
